This is an account of results in patent US11952346B2, “Modulators of mas-related G-protein receptor X2 and related products and methods” (Escient Pharmaceuticals, Inc., priority 2020, dated 2024).

The target in the assay is T1, human MRGPRX2 (Homo sapiens, UniProt Q96LB1).
T1 construct: expressed in transfected cells
T1 sequence (Q96LB1 1-330): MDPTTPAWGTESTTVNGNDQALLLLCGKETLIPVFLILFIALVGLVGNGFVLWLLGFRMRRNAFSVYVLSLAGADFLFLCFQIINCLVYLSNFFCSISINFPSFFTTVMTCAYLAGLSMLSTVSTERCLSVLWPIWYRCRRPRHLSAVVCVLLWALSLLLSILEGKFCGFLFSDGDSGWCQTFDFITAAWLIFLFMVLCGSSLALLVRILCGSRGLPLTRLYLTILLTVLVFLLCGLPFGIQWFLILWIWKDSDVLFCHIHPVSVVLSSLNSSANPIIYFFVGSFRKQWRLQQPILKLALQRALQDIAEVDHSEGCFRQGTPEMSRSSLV
Kind of assay: MRGPRX2 antagonist activity, IP-One HTRF assay in CHO cells expressing human MRGPRX2 versus Cortistatin-14. The format is cell-based. On the procedure:
CHO cells stably transfected to express human MRGPRX2 were maintained in an incubator at 37° C. with 5% CO2 and grown in F12 (HAM) media with 10% fetal bovine serum (FBS), 1% Glutamax, 1% penicillin/streptomycin, 800 μg/mL Geneticin (G418), and 300 μg/mL Hygromycin B. Cells were plated in a 384-well assay plate at 20,000 cells per well in 12 μL of Opti-MEM and kept in an incubator overnight. On the day of the assay, compounds solubilized at 10 mM in DMSO were added as a 10-point curve (30 uM final top concentration with 1:3 serial dilutions) using a Tecan D300E digital dispenser. Agonists were diluted in assay buffer (final concentrations of 5.7 mM Tris-HCl, 43 mM NaCl, 50 mM LiCI, pH=8) and 2 μL of the agonist Cortistatin-14 (CPC Scientific, catalog CORT-002) are added to each well. Final concentrations of agonists were […] Cortistatin-14. Final concentrations of DMSO were kept consistent across the plate. Plates were incubated in the dark for 1 hr at 37° C. and then for 1 hr at room temperature. IP-1 standards and HTRF detection reagents were added according to the IP-One—Gq Kit purchased from Cisbio (part number 621PAPEJ) and incubated in the dark for 1 hr at room temperature. The plate was read on a Molecular Devices SpectraMax iD5 plate reader. The HTRF ratio was calculated from the raw data and graphed using GraphPad Prism to calculate an IC50 value for each compound.
The activity ranges are denoted as follows: “+++++” denotes antagonist activity <100 nM; “++++” denotes antagonist activity between 100 and 500 nM; “+++” denotes activity between 501 and 1000 nM; “++” denotes activity between 1001 and 2500 nM; and “+” denotes activity >2500 nM.

Where [1] appears, read: CHO cells stably expressing human MRGPRX2, versus 0.3 uM Cortistatin-14 agonist, IP-1 HTRF readout, read-out: MRGPR2 Antagonist Activity.

Each structure is given as a SMILES string. Read-outs that look alike come from different tables or passages of the source. Some results are limits rather than exact numbers.

`Cc1cc(N[C@H]2CC[C@@H](NC(=O)c3ccc4nccn4c3)CC2)cc(C(F)(F)F)c1C#N` [2-3]: the IC50 under setting [1] is below 100 nM.
As to `N#Cc1ccc(N[C@H]2CC[C@@H](NC(=O)c3ccnc4[nH]ncc34)CC2)cc1C(F)(F)F` [4-59], the IC50 under setting [1] was below 100 nM.
Same read-out and setting: then `O=C(N[C@H]1CC[C@@H](Nc2cc(C(F)(F)F)nc(C(F)(F)F)c2)CC1)c1ccc(N2CCCC2)cc1` [4-41], with 100 to 500 nM.
For `O=C(N[C@H]1CC[C@@H](Nc2cc(C(F)(F)F)nc(Nc3ccccc3)n2)CC1)c1ccc(F)cc1` [Example 10, N-(1S,4S)-[4-[[2-anilino-6-(trifluoromethyl)pyrimidin-4-yl]amino}cyclohexyl]-4-fluoro-benzamide], the IC50 under setting [1] was 1000 to 2500 nM.
As for `COc1ccc(C(=O)N[C@H]2CC[C@@H](Nc3cc(C(F)(F)F)cc(C(F)(F)F)c3)CC2)cc1` [Example 14, N-((1S,4S)-4-((3,5-bis(trifluoromethyl)phenyl)amino)cyclohexyl)-4-methoxybenzamide], under setting [1], the IC50 was above 2500 nM.
For `COc1ccc(C(=O)NC2CCC(Nc3ccc(C#N)c(C(F)(F)F)c3)CC2)cc1` (stereo not drawn) [Example 4, N-[4-[4-cyano-3-(trifluoromethyl)anilino]cyclohexyl]-4-methoxy-benzamide], the IC50 under setting [1] was 100 to 500 nM.
Still for that read-out and setting: then `N#Cc1ccc(C(=O)N[C@H]2CC[C@@H](Nc3cc(C(F)(F)F)nc(C(F)(F)F)c3)CC2)cc1` [4-13], with above 2500 nM; and `CN1CCCc2cccc(C(=O)N[C@H]3CC[C@@H](Nc4cc(C(F)(F)F)nc(C(F)(F)F)c4)CC3)c21` [4-26], with 1000 to 2500 nM; and `CS(=O)(=O)Nc1cccc(C(=O)N[C@H]2CC[C@@H](Nc3cc(C(F)(F)F)nc(C(F)(F)F)c3)CC2)c1` [4-10], with 100 to 500 nM.
Turning to `O=C(N[C@H]1CC[C@@H](Nc2cc(C(F)(F)F)cc(C(F)(F)F)c2)CC1)c1ccccc1` [Example 13, N-((1S,4S)-4-((3,5-bis(trifluoromethyl)phenyl)amino)cyclohexyl)benzamide], the IC50 under setting [1] was above 2500 nM.
On the same count and under the same terms, with `CN1CCC(C(=O)N[C@H]2CC[C@@H](Nc3cc(C(F)(F)F)nc(C(F)(F)F)c3)CC2)C1` (stereo partly drawn) [4-40] the figure was 1000 to 2500 nM; with `N#Cc1ccc(N[C@H]2CC[C@@H](NC(=O)c3ccc(N4CCOCC4)cc3)CC2)cc1C(F)(F)F` [1-25], 100 to 500 nM; with `Cc1cc2[nH]cnc2cc1C(=O)N[C@H]1CC[C@@H](Nc2cc(C(F)(F)F)nc(C(F)(F)F)c2)CC1` [4-8], 100 to 500 nM.
Same read-out and setting: with `N#Cc1ccc(N[C@H]2CC[C@@H](NC(=O)c3ccc4[nH]ncc4c3)CC2)cc1C(F)(F)F` [4-50] the figure was below 100 nM.
Same read-out and setting: then `CN1CCCc2c(C(=O)N[C@H]3CC[C@@H](Nc4cc(C(F)(F)F)nc(C(F)(F)F)c4)CC3)cccc21` [4-19], with 1000 to 2500 nM; and `CC(=O)Nc1cccc(C(=O)N[C@H]2CC[C@@H](Nc3cc(C(F)(F)F)nc(C(F)(F)F)c3)CC2)c1` [4-5], with 100 to 500 nM; and `CNc1cc(C(=O)N[C@H]2CC[C@@H](Nc3ccc(C#N)c(C(F)(F)F)c3)CC2)ccn1` [4-66], with below 100 nM.
For the molecule `CN1CCc2c(cccc2C(=O)N[C@H]2CC[C@@H](Nc3cc(C(F)(F)F)nc(C(F)(F)F)c3)CC2)C1` [4-34], the IC50 under setting [1] was 1000 to 2500 nM.
With `O=C(N[C@H]1CC[C@@H](Nc2cc(C(F)(F)F)nc(C(F)(F)F)c2)CC1)c1ccc(-n2ccnc2)cc1` [4-25], the IC50 under setting [1] was in the range of 100 to 500 nM.
Take `Cc1cn(-c2ccc(C(=O)N[C@H]3CC[C@@H](Nc4ccc(C#N)c(C(F)(F)F)c4)CC3)cc2)cn1` [4-51]: under setting [1], the IC50 was below 100 nM.
On the same count and under the same terms, then `N#Cc1ccc(N[C@H]2CC[C@@H](NC(=O)c3ccc4cn[nH]c4c3)CC2)cc1C(F)(F)F` [4-49], with below 100 nM.
In turn, `CN(c1ccc(C(=O)N[C@H]2CC[C@@H](Nc3ccc(C#N)c(C(F)(F)F)c3)CC2)cc1)S(C)(=O)=O` [1-18] registered an IC50 of 100 to 500 nM.
`O=C(N[C@H]1CC[C@@H](Nc2cc(C(F)(F)F)nc(C(F)(F)F)c2)CC1)c1ccc(N2CCS(=O)(=O)CC2)cc1` [4-38]: the IC50 under setting [1] is 100 to 500 nM.
Turning to `O=C(N[C@H]1CC[C@@H](Nc2cc(C(F)(F)F)nc(C(F)(F)F)c2)CC1)c1c[nH]c2ccccc12` [4-22], under setting [1], the IC50 fell in the range of 100 to 500 nM.
As for `CCn1nccc1C(=O)N[C@H]1CC[C@@H](Nc2cc(C(F)(F)F)nc(C(F)(F)F)c2)CC1` [4-12], the IC50 under setting [1] lay in the range of 501 to 1000 nM.
Regarding `COc1cccc(C(=O)N[C@H]2CC[C@@H](Nc3cc(C(F)(F)F)nc(C(F)(F)F)c3)CC2)c1` [4-1], the IC50 under setting [1] lay within 100 to 500 nM.
On to `O=C(N[C@H]1CC[C@@H](Nc2cc(C(F)(F)F)nc(C(F)(F)F)c2)CC1)c1cccc(O)c1` [4-28], for which, under setting [1], the IC50 was 100 to 500 nM.
Still for that read-out and setting: then `N#Cc1ccc(N[C@H]2CC[C@@H](NC(=O)c3cn[nH]c3C(F)(F)F)CC2)cc1C(F)(F)F` [4-44], with below 100 nM; and `Cc1cc(N[C@H]2CC[C@@H](NC(=O)c3ccc(NCC(F)F)cc3)CC2)cc(C(F)(F)F)c1C#N` [5-8], with below 100 nM; and `N=C(N)Nc1ccc(C(=O)N[C@H]2CC[C@@H](Nc3cc(C(F)(F)F)nc(C(F)(F)F)c3)CC2)cc1` [4-20], with 501 to 1000 nM.
`CN(CC(F)F)c1ccc(C(=O)N[C@H]2CC[C@@H](Nc3ccc(C#N)c(C(F)(F)F)c3)CC2)cc1` [4-54]: the IC50 under setting [1] was below 100 nM.
Same read-out and setting: then `CN(C)c1nc(N[C@H]2CC[C@@H](NC(=O)c3ccc(F)cc3)CC2)cc(C(F)(F)F)n1` [1-8], with 501 to 1000 nM; and `CNC(=O)c1ccc(C(=O)N[C@H]2CC[C@@H](Nc3ccc(C#N)c(C(F)(F)F)c3)CC2)cc1` [4-65], with below 100 nM.
For `COc1ccc(C(=O)N[C@@H]2CCC[C@H](Nc3cc(C(F)(F)F)nc(C(F)(F)F)c3)C2)cc1` [example 1, N-((1R,3S)-3-((2,6-bis(trifluoromethyl)pyridin-4-yl)amino)cyclohexyl)-4-methoxybenzamide], the IC50 under setting [1] was above 2500 nM.
Still for that read-out and setting: with `N#Cc1ccc(N[C@H]2CC[C@@H](NC(=O)c3ccc(NCC(F)F)cc3)CC2)cc1C(F)(F)F` [4-53] the figure was below 100 nM.
Same read-out and setting: then `Cc1cc(N[C@H]2CC[C@@H](NC(=O)c3ccc4cncn4c3)CC2)cc(C(F)(F)F)c1C#N` [5-9], with below 100 nM; and `Cc1cccc2[nH]cc(C(=O)N[C@H]3CC[C@@H](Nc4ccc(C#N)c(C(F)(F)F)c4)CC3)c12` [4-62], with below 100 nM.
As to `N#Cc1ccc(N[C@H]2CC[C@@H](NC(=O)c3ccc4nccn4c3)CC2)cc1C(F)(F)F` [1-20], the IC50 lay within 100 to 500 nM.
With `O=C(N[C@H]1CC[C@@H](Nc2cc(C(F)(F)F)nc(C(F)(F)F)c2)CC1)c1ccc(-n2cnnn2)cc1` [4-30], under setting [1], the IC50 fell in the range of 100 to 500 nM.
For the molecule `O=C(N[C@H]1CC[C@@H](Nc2cc(C(F)(F)F)nc(C(F)(F)F)c2)CC1)c1cccc2[nH]ccc12` [4-6], the IC50 under setting [1] was in the range of 100 to 500 nM.
As for `O=C(N[C@H]1CC[C@@H](Nc2cc(C(F)(F)F)nc(C(F)(F)F)c2)CC1)c1ccc(F)cc1` [1-1], under setting [1], the IC50 lay within 100 to 500 nM.
Still for that read-out and setting: with `O=C(N[C@H]1CC[C@@H](Nc2cc(C(F)(F)F)nc(N3CCCC3)n2)CC1)c1ccc(F)cc1` [1-9] the figure was 1000 to 2500 nM; with `N#Cc1ccc(N[C@H]2CC[C@@H](NC(=O)c3c[nH]c4cnccc34)CC2)cc1C(F)(F)F` [4-64], below 100 nM.
Same read-out and setting: then `COc1ccc(C(=O)N[C@H]2CC[C@@H](Nc3ccc(F)c(C(F)(F)F)c3)CC2)cc1` [2-2], with 501 to 1000 nM.
Still for that read-out and setting: with `N#Cc1ccc(N[C@H]2CC[C@@H](NC(=O)c3cnn(CC(F)(F)F)c3)CC2)cc1C(F)(F)F` [Example 17, N-((1s,4s)-4-((4-cyano-3-(trifluoromethyl)phenyl)amino)cyclohexyl)-1-(2,2,2-trifluoroethyl)-1H-pyrazole-4-carboxamide] the figure was below 100 nM.
Turning to `CN(C)c1ccc(C(=O)N[C@H]2CC[C@@H](Nc3cc(N(C)C)nc(C(F)(F)F)c3)CC2)cc1` [2-1], the IC50 under setting [1] is 1000 to 2500 nM.
Still for that read-out and setting: with `Nc1nc(C(=O)N[C@H]2CC[C@@H](Nc3cc(C(F)(F)F)nc(C(F)(F)F)c3)CC2)cs1` [4-27] the figure was 100 to 500 nM.
On the same count and under the same terms, then `N#Cc1ccc(N[C@H]2CC[C@@H](NC(=O)c3ccc(F)cc3)CC2)cc1C(F)(F)F` [1-22], with 100 to 500 nM; and `CNC(=O)Nc1cccc(C(=O)N[C@H]2CC[C@@H](Nc3cc(C(F)(F)F)nc(C(F)(F)F)c3)CC2)c1` [4-3], with 100 to 500 nM; and `N#Cc1ccc(N[C@H]2CC[C@@H](NC(=O)c3cccc4ncsc34)CC2)cc1C(F)(F)F` [1-24], with 1000 to 2500 nM.
Consider `O=C(N[C@H]1CC[C@@H](Nc2cc(C(F)(F)F)nc(C(F)(F)F)c2)CC1)c1ccc(Cl)cc1` [4-14], for which, under setting [1], the IC50 lay in the range of 501 to 1000 nM.
